How the values were obtained:
Test in all cases: relative viability (nuclei count vs DMSO), 5 days (fraction); higher = more cells survive
[1] = compound: C1CSC2=C(C(=O)N1)SC3=C2C=C(C=C3)O [kb NB 142-70] + Cc1cc(Nc2cc(N3CCN(C)CC3)nc(Sc3ccc(NC(=O)C4CC4)cc3)n2)n[nH]1 [Tozasertib] (partner 0.1 µM)
Outline: (§1)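 Relative viability was taken as the ratio of nuclei in treated wells to nuclei in vehicle wells. Lung cancer cell lines in 1536-well plates received compounds by pin tool one day after seeding, either one drug alone or a fixed anchor-drug dose plus five library-drug doses (not always all listed) in √10 steps. Nuclei were counted on 4× images after 5 days of treatment, and values are medians of duplicate plates.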

[2] = compound: NCC(=O)Nc1ccc(-n2nc(C(F)(F)F)cc2-c2ccc3c(ccc4ccccc43)c2)cc1 + Nc1nc2[nH]cc(CCc3ccc(C(=O)N[C@@H](CCC(=O)O)C(=O)O)cc3)c2c(=O)[nH]1 [Pemetrexed] (partner 0.2 µM)
Outline: as §1

[3] = compound: C1CSC2=C(C(=O)N1)SC3=C2C=C(C=C3)O [kb NB 142-70] + C[C@]1(O)C[C@@H](c2nc(-c3ccc4ccc(-c5ccccc5)nc4c3)c3c(N)nccn32)C1 [Linsitinib] (partner 1 µM)
Outline: as §1

[4] = compound: NCC(=O)Nc1ccc(-n2nc(C(F)(F)F)cc2-c2ccc3c(ccc4ccccc43)c2)cc1 + CC1(C)CCC(c2ccc(Cl)cc2)=C(CN2CCN(c3ccc(C(=O)NS(=O)(=O)c4ccc(N[C@H](CCN5CCOCC5)CSc5ccccc5)c(S(=O)(=O)C(F)(F)F)c4)cc3)CC2)C1 [Navitoclax] (partner 0.5 µM)
Outline: as §1

Row | Cell Line | relative viability ([1]; first compound 0.1 µM) | relative viability ([1]; first compound 1 µM) | relative viability ([1]; first compound 3.162 µM) | relative viability ([2]; first compound 0.02 µM) | relative viability ([2]; first compound 0.06325 µM) | relative viability ([2]; first compound 0.2 µM) | relative viability ([2]; first compound 0.6325 µM) | relative viability ([2]; first compound 2 µM) | relative viability ([3]; first compound 0.1 µM) | relative viability ([3]; first compound 1 µM) | relative viability ([3]; first compound 3.162 µM) | relative viability ([4]; first compound 0.02 µM) | relative viability ([4]; first compound 0.06325 µM) | relative viability ([4]; first compound 0.2 µM) | relative viability ([4]; first compound 0.6325 µM) | relative viability ([4]; first compound 2 µM)
1 | SW 900 | 0.608 | 0.472 | 0.407 | 0.501 | 0.495 | 0.453 | 0.508 | 0.495 | – | – | – | – | – | – | – | –
2 | A549 | – | – | – | – | – | – | – | – | 0.551 | 0.524 | 0.499 | 1.24 | 1.19 | 1.24 | 1.17 | 0.7
3 | A-427 | 0.252 | 0.221 | 0.195 | 1 | 0.975 | 1.02 | 0.974 | 0.957 | 1.04 | 1.12 | 1.01 | 0.798 | 0.956 | 0.972 | 0.95 | 0.959
4 | NCI-H1792 | – | – | – | 0.943 | 1.07 | 0.802 | 0.943 | 0.872 | 0.598 | 0.616 | 0.688 | 0.694 | 0.722 | 0.617 | 0.693 | 0.617
5 | LCLC-97TM1 | 0.197 | 0.207 | 0.149 | 0.181 | 0.176 | 0.183 | 0.178 | 0.135 | 0.192 | 0.187 | 0.172 | 0.321 | 0.422 | – | 0.359 | 0.393
6 | NCI-H1703 | – | – | – | – | – | – | – | – | 0.975 | 0.625 | 0.823 | 1.07 | 1.06 | 1.35 | 1 | 1.51
7 | LCLC-103H | 0.472 | 0.524 | 0.417 | 0.406 | 0.481 | 0.434 | 0.447 | 0.437 | 0.989 | 1.2 | 1.15 | – | – | – | – | –
8 | PC-3 [JPC-3] | 0.923 | 0.94 | 0.773 | 1.2 | 1.24 | 1.08 | 1.2 | 1.18 | 0.971 | 0.98 | 0.881 | 0.765 | 0.842 | 0.718 | 0.84 | 0.79
9 | BEN | 0.459 | 0.455 | 0.437 | 0.782 | 0.869 | 0.775 | 0.758 | 0.688 | 0.793 | 0.893 | 0.724 | 0.0632 | 0.0631 | 0.0469 | 0.0862 | 0.0668
10 | NCI-H1666 | 0.642 | 0.614 | 0.479 | 0.947 | 0.881 | 0.87 | 0.851 | 0.878 | 0.858 | 0.831 | 0.483 | 1.14 | 0.788 | 1.11 | 0.913 | 1.01
11 | LC-2-ad | 0.451 | 0.428 | 0.341 | 0.28 | 0.265 | 0.292 | 0.307 | 0.281 | 0.791 | 0.825 | 0.677 | 0.456 | 0.44 | 0.484 | 0.492 | 0.535
12 | SK-LU-1 | 0.339 | 0.282 | 0.182 | 0.992 | 0.956 | 1.11 | 0.902 | 0.989 | 1.26 | 0.986 | 0.557 | 0.852 | 0.784 | 1.27 | 0.909 | 0.878

From the supplement of paper PMC10307832
